The target of the test is ALP in normal human articular chondrocytes (NHACs). The test is described as follows: Alkaline Phosphatase (ALP) activity assay (staining and quantitation) in NHACs, prevention of chondrocyte hypertrophy. It counts as cell-based. Particulars: human IL-1 beta 10 ng/mL, 12 days; for IC50: Fast Blue RR staining, high content imaging, read-out: ALP in NHAC IC50; for ALP in NHAC (% Efficacy) / Emax: value in parentheses; for Emax: read-out: ALP in NHAC (% Efficacy). As for the experimental part:
The compounds of the present invention were evaluated in the Alkaline Phosphatase (ALP) activity assay to determine the ability of the compounds to prevent chondrocyte hypertrophy in normal human articular chondrocytes (NHACs).
Normal human articular chondrocytes (NHACs) were purchased from PromoCell (Heidelberg, Germany) and grown in Chondrocyte Growth Medium (CGM; Lonza, Walkersville, Md.).
NHACs were expanded in Chondrocyte Growth Medium (CGM) from Lonza until they reached a 60-80% confluency. To initiate differentiation, 7,500 cells were plated/well with indicated test compound dose in 384-well Cell Carrier Ultra plates (Perkin Elmer) with DMEM (SH30022—HyClone) containing 10% FBS (35-015-CV—Corning), 1% Pen/Strep antibiotics (SV30010—HyClone), and 1% Normocin (50 mg/mL—InvivoGen). Cells with test compounds were incubated at 37° C., 5% CO2 for 5 hours and then added human IL-1 beta (AF-200-1B—Peprotech) to each well at a final concentration of 10 ng/mL and incubated at 37° C., 5% CO2 for 12 days.
To detect the presence of hypertrophic cells, NHACs were fixed with 4% paraformaldehyde and Hoechst 33342 (Invitrogen) dye for 30 minutes, rinsed in PBS, then stained with Fast Blue RR Salt (F0500—Sigma) with Naphthol AS-MX Phosphate Alkaline Solution, 0.25% (855—Sigma-Aldrich).
The staining was imaged by fluorescent microscopy, using the 561 nm wavelength, and/or quantified by high content imaging with the Image press Confocal (Molecular Devices, Sunnyvale, Calif.). Data analyses were performed with a customized multiwavelength cell-scoring application.

Where two headings read alike, the source gives them in different places. A value given as a limit tells only on which side of the number the result lay.

As for `O=C(Nc1ccc(C(F)(F)F)c(Cl)n1)[C@@H]1[C@@H](c2cccc(C(F)(F)F)c2)[C@H]2O[C@@H]1C[C@@H]2O` (single isomer, unassigned) [Example 25b, (1R,2R,3S,4R,5S)—N-(6-chloro-5-(trifluoromethyl)pyridin-2-yl)-5-hydroxy-3-(3-(trifluoromethyl)phenyl)-7-oxabicyclo[2.2.1]heptane-2-carboxamide or (1S,2S,3R,4S,5R)—N-(6-chloro-5-(trifluoromethylpyridin-2-yl)-5-hydroxy-3-(3-(trifluoromethyl)phenyl)-7-oxabicyclo[2.2.1]heptane-2-carboxamide], the concentration for half-maximal inhibition (IC50) came to 0.84 µM and the “ALP in NHAC (% Efficacy)” value is reported as 99%.

Turning to `Cn1nc(C(F)(F)F)cc1[C@H]1[C@H]2O[C@H](C[C@@H]2O)[C@@H]1C(=O)Nc1cc(C(F)(F)F)ccn1` (racemic) [Example 74, rac-(1R,2R,3,4R,5)-5-hydroxy-3-(1-methy-3-(trifluoromethyl)-1H-pyrazol-5-yl)-N-(4-(trifluoromethyl)pyridin-2-yl-7-oxabicyclo[2.2.1]heptane-2-carboxamide], for the setting “Chondrocyte, 288 h”, the IC50 worked out at 11 µM and the Emax was determined as 64%.

Consider `COc1ccc(NC(=O)[C@@H]2[C@@H](c3cccc(C(F)(F)F)c3)[C@H]3O[C@@H]2C[C@@H]3O)cc1C(F)(F)F` (racemic) [Example 20, rac-(1R,2R,3S,4R,5S)-5-hydroxy-N-(4-methoxy-3-trifluoromethyl)phenyl)-3-(3-(trifluoromethyl)phenyl)-7-oxabicyclo[2.2.1]heptane-2-carboxamide], for which, where the note is “Chondrocyte, 288 h”, the IC50 came to 14 µM and the Emax amounted to 102%.

For `Cn1cc([C@H]2[C@H]3O[C@H](C[C@@H]3O)[C@@H]2C(=O)Nc2ccc(Cl)c(C(F)(F)F)c2)c(C(F)(F)F)n1` (racemic) [Example 53, rac-(1R,2R,3S,4R,5S)—N-(4-chloro-3-(trifluoromethyl)phenyl)-5-hydroxy-3-(1-methyl-3-(trifluoromethyl)-1H-pyrazol-4-yl)-7-oxabicyclo[2.2.1]heptane-2-carboxamide], for the setting “Chondrocyte, 288 h”, the IC50 was found to be 7.2 µM and the Emax was found to be 86%.

Regarding `O=C(Nc1cccc(C(F)(F)F)c1)[C@@H]1[C@@H](c2ccc(C(F)(F)F)nc2)[C@H]2O[C@@H]1C[C@@H]2O` (racemic) [Example 82, rac-(1R,2R,3S,4R,5S)-5-hydroxy-N-(3-(trifluoromethyl)phenyl)-3-(6-(trifluoromethyl)pyridin-3-yl)-7-oxabicyclo[2.2.1]heptane-2-carboxamide], for the setting “Chondrocyte, 288 h”, the half-maximal inhibitory concentration (IC50) was 4.6 µM and the Emax is 78%.

Regarding `COc1cc([C@H]2[C@H]3O[C@H](C[C@@H]3O)[C@@H]2C(=O)Nc2cc(C(F)(F)F)ccc2C#N)ccn1` (racemic) [Example 78, rac-(1R,2R,3S,4R,5)-N-(2-cyano-5-trifluoromethyl)phenyl)-5-hydroxy-3-(2-methoxypyridin-4-yl)-7-oxabicyclo[2.2.1]heptane-2-carboxamide], where the note is “Chondrocyte, 288 h”, the IC50 came out at 0.055 µM and the Emax was determined as 74%.

`Cn1cc([C@H]2[C@H]3O[C@H](C[C@@H]3O)[C@@H]2C(=O)Nc2cc(F)cc(C(F)(F)F)c2)c(C(F)(F)F)n1` (racemic) [Example 45, rac-(1R,2R,3S,4R,5S)—N-(3-fluoro-5-(trifluoromethyl)phenyl)-5-hydroxy-3-(1-methyl-3-(trifluoromethyl)-1H-pyrazol-4-yl)-7-oxabicyclo[2.2.1]heptane-2-carboxamide]: under “Chondrocyte, 288 h”, the IC50 was 7 µM and the Emax was determined as 61%.

Regarding `COc1cc([C@H]2[C@H]3O[C@H](C[C@@H]3O)[C@@H]2C(=O)Nc2ccc(C)c(C(F)(F)F)c2)ccn1` (racemic) [Example 68, rac-(1R,2R,3,4R,5S)-5-hydroxy-3-(2-methoxypyridin-4-yl)-N-(4-methyl-3-(trifluoromethyl)phenyl)-7-oxabicyclo[2.2.1]heptane-2-carboxamide], under “Chondrocyte, 288 h”, the IC50 is above 30 µM and the Emax was found to be 31%.

For the molecule `O=C(Nc1cccc(C(F)(F)F)c1)[C@@H]1[C@@H](c2cncc(C(F)(F)F)c2)[C@H]2O[C@@H]1C[C@@H]2O` (racemic) [Example 81, rac-(1R,2R,3S,4R,5S)-5-hydroxy-N-(3-(trifluoromethyl)phenyl)-3-(5-(trifluoromethyl)pyridin-3-yl)-7-oxabicyclo[2.2.1]heptane-2-carboxamide], where the note is “Chondrocyte, 288 h”, the IC50 is 19 µM and the Emax came to 59%.

As for `Cn1cc([C@H]2[C@H]3O[C@H](C[C@@H]3O)[C@@H]2C(=O)Nc2cc(C(F)(F)F)ccc2C#N)c(C(F)(F)F)n1` (racemic) [Example 49, rac-(1R,2R,3S,4R,5S)—N-(2-cyano-5-(trifluoromethyl)phenyl)-5-hydroxy-3-(1-methyl-3-(trifluoromethyl)-1H-pyrazol-4-yl)-7-oxabicyclo[2.2.1]heptane-2-carboxamide], under “Chondrocyte, 288 h”, the IC50 was 0.53 µM and the Emax was 96%.

Consider `CCOc1ccc(NC(=O)[C@@H]2[C@@H](c3cccc(C(F)(F)F)c3)[C@H]3O[C@@H]2C[C@@H]3O)cc1C(F)(F)F` (racemic) [Example 24, rac-(1R,2R,3S,4R,5S)—N-(4-ethoxy-3-trifluoromethyl)phenyl)-5-hydroxy-3-(3-(trifluoromethyl)phenyl)-7-oxabicyclo[2.2.1]heptane-2-carboxamide], for which, where the note is “Chondrocyte, 288 h”, the IC50 worked out at 14 µM and the Emax amounted to 108%.

For `Cn1cc([C@H]2[C@H]3O[C@H](C[C@@H]3O)[C@@H]2C(=O)Nc2cc(C(F)(F)F)ccn2)c(C(F)(F)F)n1` (racemic) [Example 38, rac-(1R,2R,3S,4R,5S)-5-hydroxy-3-(1-methyl-3-(trifluoromethyl)-1H-pyrazol-4-yl)-N-(4-(trifluoromethyl)pyridin-2-yl)-7-oxabicyclo[2.2.1]heptane-2-carboxamide], for the setting “Chondrocyte, 288 h”, the half-inhibitory concentration (IC50) was 3.6 µM and the Emax was 94%.

With `COc1cc(NC(=O)[C@@H]2[C@@H](c3cccc(C(F)(F)F)c3)[C@H]3O[C@@H]2C[C@@H]3O)cc(C(F)(F)F)c1` (racemic) [Example 21, rac-(1R,2R,3S,4R,5S)-5-hydroxy-N-(3-methoxy-5-trifluoromethyl)phenyl)-3-(3-(trifluoromethyl)phenyl)-7-oxabicyclo[2.2.1]heptane-2-carboxamide], where the note is “Chondrocyte, 288 h”, the IC50 amounted to 24 µM and the Emax was determined as 104%.

Turning to `Cn1cc([C@H]2[C@H]3O[C@H](C[C@@H]3O)[C@@H]2C(=O)Nc2cc(C(F)(F)F)cc(Cl)n2)c(C(F)(F)F)n1` (racemic) [Example 35, rac-(1R,2R,3S,4R,5S)—N-(6-chloro-4-(trifluoromethyl)pyridin-2-yl)-5-hydroxy-3-(1-methyl-3-(trifluoromethyl)-1H-pyrazol-4-yl)-7-oxabicyclo[2.2.1]heptane-2-carboxamide], for the setting “Chondrocyte, 288 h”, the IC50 amounted to 9.8 µM and the Emax worked out at 83%.

Take `COc1cc([C@H]2[C@H]3O[C@H](C[C@@H]3O)[C@@H]2C(=O)Nc2cccc(C(F)(F)F)c2)ccn1` (racemic) [Example 70, rac-(1R,2R,3S,4R,5S)-5-hydroxy-3-(2-methoxypyridin-4-yl)-N-(3-(trifluoromethyl)phenyl)-7-oxabicyclo[2.2.1]heptane-2-carboxamide]: under “Chondrocyte, 288 h”, the IC50 is above 30 µM and the Emax was 13%.

For `Cn1cc([C@H]2[C@H]3O[C@H](C[C@@H]3O)[C@@H]2C(=O)Nc2cc(C(F)(F)F)c(Cl)cn2)c(C(F)(F)F)n1` (racemic) [Example 36, rac-(1R,2R,3S,4R,5S)—N-(5-chloro-4-(trifluoromethyl)pyridin-2-yl)-5-hydroxy-3-(1-methyl-3-(trifluoromethyl)-1H-pyrazol-4-yl)-7-oxabicyclo[2.2.1]heptane-2-carboxamide], under “Chondrocyte, 288 h”, the IC50 came to 3.6 µM and the Emax came to 92%.

In the case of `Cn1cc([C@H]2[C@H]3O[C@H](C[C@@H]3O)[C@@H]2C(=O)Nc2cc(C(F)(F)F)ccc2C#N)c(C(F)(F)F)n1` (single isomer, unassigned) [Example 49a, (1R,2R,3S,4R,5N-(2-cyano-5-(trifluoromethyl)phenyl)-5-hydroxy-3-(1-methyl-3-(trifluoromethyl)-1H-pyrazol-4-yl)-7-oxabicyclo[2.2.1]heptane-2-carboxamide or (1S,2S,3R,4S,5R)—N-(2-cyano-5-(trifluoromethyl)phenyl)-5-hydroxy-3-(1-methyl-3-(trifluoromethyl)-1H-pyrazol-4-yl)-7-oxabicyclo[2.2.1]heptane-2-carboxamide], the IC50 worked out at 1.9 µM and the “ALP in NHAC (% Efficacy)” value came to 101%.

For `N#Cc1ccc(C(F)(F)F)cc1NC(=O)[C@@H]1[C@@H](c2cccc(C(F)(F)F)c2)[C@H]2O[C@@H]1C[C@@H]2O` (racemic) [Example 48, rac-(1R,2R,3S,4R,5S)—N-(2-cyano-5-(trifluoromethyl)phenyl)-5-hydroxy-3-(3-(trifluoromethyl)phenyl)-7-oxabicyclo[2.2.1]heptane-2-carboxamide], where the note is “Chondrocyte, 288 h”, the IC50 is 0.088 µM and the Emax was 92%.

For the origin of these results see patent US12257243B2, “5-hydroxy-7-oxabicyclo[2.2.1]heptane-2-carboxamide derivatives for inducing chondrogenesis for treating joint damage” (NOVARTIS AG, priority 2018, dated 2025).
